Data: patent US20150094474A1, “AGRICULTURAL CHEMICALS” (Redx Pharma Ltd., priority 2012, published 2015)

How the values were obtained:
Format in all cases: in vivo
Conditions in all cases: 20% concentration
black ants, Lasius niger = assay: Insect repellent bioassay, black ants (treated tile arena)
Protocol: (§1) A laboratory bioassay was conducted to screen 5 compounds (Icaridin (38); and 4 icaridin analogues: 39, 40a, 42a and 41) for repellent activity against houseflies, Musca domestica, black ants, Lasius niger, German cockroaches, Blattella germanica, and bedbugs, Cimex lectularius. Compounds were diluted in a mixture of ethanol and water and assessed at a 20% concentration. A mixture of ethanol/water only negative control was also included for comparative purposes. These were applied onto an aluminium foil tile, which was placed into one half of an arena. The other half of the arena contained an untreated aluminium foil tile. The number of insects present in the treated and untreated area was assessed every 5 minutes for a total of 20 minutes.
Black ants, Lasius niger, were field collected from the Cardiff area. Mixed age worker ants were used in the experiments.
(§2) Temperature was maintained between 24.2 and 24.6° C. and relative humidity ranged between 27.5% and 43.5%, throughout the experimental period.
(§3) The tested compounds were diluted in ethanol and water to a concentration of 20% (w/w: compound 20%, ethanol 40%, water 40%). The concentrates were prepared at room temperature and stirred for approximately 15 minutes using a vortex mixer. A negative control (mixture of ethanol:water 50:50) was also included in the testing for comparative purposes. Treatments were applied directly on to a non porous surface (aluminium foil), using a Gilson pipette at a rate of 0.225 ml per 225 cm^2 surface tile. A small piece of acetate was used to evenly spread the treatments across the entire surface of the tile.
(§4) For the testing against ants, cockroaches and bedbugs: A clear plastic container was used measuring approximately 34 cm long×21 cm wide×20 cm high. This was divided into two halves. The treated aluminium foil was placed in one half and the other half contained untreated foil. Food (sugar cube for black ants and bran pellet for cockroaches) and water (damp cotton wool) were placed in each half where appropriate. Twenty ants/cockroaches and ten bedbugs were placed in the centre of the arena. The number of insects in each half was assessed at 5 minute intervals for a total of 20 minutes.
(§5) Three to six replicates were performed for each treatment, for each species.

[1] = test system: bedbugs, Cimex lectularius; assay: Insect repellent bioassay, bedbugs (treated tile arena)
Protocol: as §1
Bedbugs, Cimex lectularius, were obtained from a laboratory culture maintained at CimexStore (Chepstow, UK). Mixed age and sex adult bedbugs were used in the experiments (see deviation below).
as §2, §3, §4, §5

[2] = test system: German cockroaches, Blattella germanica; assay: Insect repellent bioassay, German cockroaches (treated tile arena)
Protocol: as §1
(§6) Houseflies, Musca domestica, and German cockroaches, Blattella germanica, were obtained from a laboratory culture maintained at i2LResearch. Mixed sex and age adult insects (flies were aged 3-6 days old) were used in the experiments.
as §2, §3, §4, §5

[3] = test system: houseflies, Musca domestica; assay: Insect repellent bioassay, houseflies (treated tile arena)
Protocol: as §1, §6, §2, §3
For the testing against houseflies: A clear plastic container was used measuring approximately 34 cm long×21 cm wide×20 cm high, with a piece of netting and lid on top. This was divided into two halves using an additional tile with a small slit measuring approximately 2.5 cm×5 cm cut at a height of […] from the base, so that the insects could freely travel between halves. A treated and untreated tile was placed either side of the dividing panel. Twenty flies were placed in the half with the treated surface. Sugar and water was placed in both halves. The number of insects crossing from the treated area into the untreated area was assessed at 5 minute intervals for a total of 20 minutes.
as §5

SMILES | insects on the treated tile (black ants, Lasius niger; TIME 5 mins) | insects on the treated tile (black ants, Lasius niger; TIME 10 mins) | insects on the treated tile (black ants, Lasius niger; TIME 15 mins) | insects on the treated tile (black ants, Lasius niger; TIME 20 mins) | insects on the treated tile ([1]; TIME 5 mins) | insects on the treated tile ([1]; TIME 10 mins) | insects on the treated tile ([1]; TIME 15 mins) | insects on the treated tile ([1]; TIME 20 mins) | insects on the treated tile ([2]; TIME 5 mins) | insects on the treated tile ([2]; TIME 10 mins) | insects on the treated tile ([2]; TIME 15 mins) | insects on the treated tile ([2]; TIME 20 mins) | insects moving towards the treated tile ([3]; TIME 5 mins) | insects moving towards the treated tile ([3]; TIME 10 mins) | insects moving towards the treated tile ([3]; TIME 15 mins) | insects moving towards the treated tile ([3]; TIME 20 mins)
CCC(C)OC(=O)N1CCCCC1CC(=O)O (stereo not drawn) [Compound 41, 2-(1-sec-Butoxycarbonyl-2-piperidyl)acetic acid] | C (greater than 25% were on the treated tile) | C (greater than 25% were on the treated tile) | C (greater than 25% were on the treated tile) | C (greater than 25% were on the treated tile) | A (10% or less of the insects were on the treated tile) | B (between 11% and 25% were on the treated tile) | B (between 11% and 25% were on the treated tile) | B (between 11% and 25% were on the treated tile) | B (between 11% and 25% were on the treated tile) | B (between 11% and 25% were on the treated tile) | B (between 11% and 25% were on the treated tile) | B (between 11% and 25% were on the treated tile) | A (10% or less of the insects were on the treated tile) | A (10% or less of the insects were on the treated tile) | B (between 11% and 25% were on the treated tile) | B (between 11% and 25% were on the treated tile)
CCC(C)OC(=O)N1CCCCC1CC(=O)OC (stereo not drawn) [Compound 42a, sec-Butyl 2-(2-methoxy-2-oxo-ethyl)piperidine-1-carboxylate] | B (between 11% and 25% were on the treated tile) | B (between 11% and 25% were on the treated tile) | B (between 11% and 25% were on the treated tile) | A (10% or less of the insects were on the treated tile) | A (10% or less of the insects were on the treated tile) | A (10% or less of the insects were on the treated tile) | A (10% or less of the insects were on the treated tile) | A (10% or less of the insects were on the treated tile) | B (between 11% and 25% were on the treated tile) | B (between 11% and 25% were on the treated tile) | B (between 11% and 25% were on the treated tile) | B (between 11% and 25% were on the treated tile) | A (10% or less of the insects were on the treated tile) | A (10% or less of the insects were on the treated tile) | B (between 11% and 25% were on the treated tile) | B (between 11% and 25% were on the treated tile)
CCC(C)OC(=O)N1CCCCC1CCO (stereo not drawn) [Icaridin (38), Icaridin, reference compound] | B (between 11% and 25% were on the treated tile) | B (between 11% and 25% were on the treated tile) | B (between 11% and 25% were on the treated tile) | A (10% or less of the insects were on the treated tile) | A (10% or less of the insects were on the treated tile) | A (10% or less of the insects were on the treated tile) | A (10% or less of the insects were on the treated tile) | A (10% or less of the insects were on the treated tile) | B (between 11% and 25% were on the treated tile) | B (between 11% and 25% were on the treated tile) | A (10% or less of the insects were on the treated tile) | A (10% or less of the insects were on the treated tile) | B (between 11% and 25% were on the treated tile) | C (greater than 25% were on the treated tile) | C (greater than 25% were on the treated tile) | C (greater than 25% were on the treated tile)
